How the values were obtained:
SrEF-Tu A378P = biological target: T1, SrEF-Tu A378P (Streptomyces ramocissimus, UniProt P29542, A379P); assay: elfamycin binding visualized by non-denaturing PAGE; design: species or system S. ramocissimus; settings: 25 µM aurodox, 15 minutes at 37°C; Western blotting detection
T1 construct: made in house; host or cells: E. coli JM101
Method: (§1) Susceptibility of the isolated EF-Tu to elfamycin is tested in elfamycin binding studies (G. Chinali et al., Eur. J. Biochem. 75 (1977) 55-65,) and in studies on the inhibition of EF-Tu dependent peptide synthesis (C. Glöckner and H. Wolf, cited above). Still another direct elfamycin binding assay has been developed in which the capacity of the EF-Tu protein to bind elfamycins can be visualized by a change in EF-Tu protein migration in the presence of the elfamycin by non-denaturing PAGE (polyacrylamide gel electrophoresis). Upon elfamycin binding to EF-Tu.GDP, a ternary complex is formed which is more negatively charged than the binary EF-Tu.GDP complex (B. Kraal et al, 1989, in The Guanine-Nucleotide Binding Proteins, pp 121-129, Plenum Press, New York). Consequently elfamycin binding, using e.g. aurodox, to Escherichia coli wild-type EF-Tu increases the migration distance into a non-denaturing polyacrylamide gel. Both the methods of peptide synthesis inhibition and visualization of elfamycin binding are the preferred techniques to determine the effect of elfamycin binding on EF-Tu functioning. These susceptibility assays are important if increased elfamycin resistance of EF-Tu has to be established.
(§2) For direct visualization of the elfamycin binding capacity, the mutant proteins were expressed in E. coli JM101 essentially as described in Example 3. Subsequently, a GDP stabilized S-30, S-100, or purified SrEF-Tu sample was prepared, and incubated with 25 µM aurodox for 15 minutes at 37°C. These samples, and control samples without aurodox were then subjected to non-denaturing 10% polyacrylamide gels and electrophoresed. Detection of the SrEF-Tu species was performed by the Western blotting technique using SrEF-Tu antibodies (Example 1). […] This experiment thus established that elfamycin resistance is most likely the effect of a reduced binding of the elfamycin to the mutant SrEF-Tu proteins.

SrEF-Tu A378F = biological target: T2, SrEF-Tu A378F (Streptomyces ramocissimus, UniProt P29542, A379F); assay: as above; design: species or system S. ramocissimus; settings: 25 µM aurodox, 15 minutes at 37°C; Western blotting detection
T2 construct: made in house; host or cells: E. coli JM101
Method: as §1, §2

SrEF-Tu A378V = biological target: T3, SrEF-Tu A378V (Streptomyces ramocissimus, UniProt P29542, A379V); assay: as above; design: species or system S. ramocissimus; settings: 25 µM aurodox, 15 minutes at 37°C; Western blotting detection
T3 construct: made in house; host or cells: E. coli JM101
Method: as §1, §2

SrEF-Tu A378T = biological target: T4, SrEF-Tu A378T (Streptomyces ramocissimus, UniProt P29542, A379T); assay: as above; design: species or system S. ramocissimus; settings: 25 µM aurodox, 15 minutes at 37°C; Western blotting detection
T4 construct: made in house; host or cells: E. coli JM101
Method: as §1, §2

[1] = biological target: T5, major EF-Tu species of S. ramocissimus strain R1V (Streptomyces ramocissimus, UniProt P29542, A379V); assay: direct elfamycin binding assay on S-100 extract; settings: S-100 extract of strain R1V; 25 µM Aurodox
T5 construct: an S-100 extract was prepared from a culture of S. ramocissimus strain R1V; endogenous in cells; host or cells: S. ramocissimus strain R1V (chromosomal tuf1 replaced by the A378V allele)
Method: as §2
To establish that S. ramocissimus strain R1V actually expresses the mutated Srtuf1 gene as the main EF-Tu species, an S-100 extract was prepared from a culture of S. ramocissimus strain R1V essentially as described in Example 1. Subsequently this extract was subjected to the direct elfamycin binding assay outlined in Example 6.

[2] = biological target: T6, wild-type S. ramocissimus EF-Tu (Streptomyces ramocissimus, UniProt P29542); assay: elfamycin binding visualized by non-denaturing PAGE; settings: 25 µM aurodox, 15 minutes at 37°C; Western blotting detection
T6 construct: made in house; host or cells: E. coli JM101 (pUSrT1-1)
Method: as §1
For direct visualization of the elfamycin binding capacity, the mutant proteins were expressed in E. coli JM101 essentially as described in Example 3. […]

T4 sequence (P29542 whole entry A379T): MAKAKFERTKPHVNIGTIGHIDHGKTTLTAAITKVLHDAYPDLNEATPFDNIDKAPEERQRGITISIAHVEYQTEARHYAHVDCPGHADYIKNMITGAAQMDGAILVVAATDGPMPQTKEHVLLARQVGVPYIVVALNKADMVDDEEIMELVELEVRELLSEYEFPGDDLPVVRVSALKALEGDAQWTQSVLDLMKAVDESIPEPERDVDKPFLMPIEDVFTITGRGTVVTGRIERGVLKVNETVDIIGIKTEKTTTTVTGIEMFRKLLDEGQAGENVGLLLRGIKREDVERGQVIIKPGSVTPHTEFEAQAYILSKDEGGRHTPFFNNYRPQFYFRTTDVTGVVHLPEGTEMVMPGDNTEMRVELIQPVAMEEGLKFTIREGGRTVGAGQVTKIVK
T6 sequence (P29542 whole entry): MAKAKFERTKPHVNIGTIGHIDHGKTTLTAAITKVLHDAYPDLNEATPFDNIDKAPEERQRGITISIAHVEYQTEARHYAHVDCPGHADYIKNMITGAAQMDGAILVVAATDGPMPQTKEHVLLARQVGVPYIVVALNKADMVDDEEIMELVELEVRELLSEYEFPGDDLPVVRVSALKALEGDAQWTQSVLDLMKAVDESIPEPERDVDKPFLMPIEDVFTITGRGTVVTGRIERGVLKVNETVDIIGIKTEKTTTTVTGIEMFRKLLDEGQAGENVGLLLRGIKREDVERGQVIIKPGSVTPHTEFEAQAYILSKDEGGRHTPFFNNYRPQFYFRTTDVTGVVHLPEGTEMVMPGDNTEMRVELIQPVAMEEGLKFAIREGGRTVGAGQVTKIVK
T2 sequence (P29542 whole entry A379F): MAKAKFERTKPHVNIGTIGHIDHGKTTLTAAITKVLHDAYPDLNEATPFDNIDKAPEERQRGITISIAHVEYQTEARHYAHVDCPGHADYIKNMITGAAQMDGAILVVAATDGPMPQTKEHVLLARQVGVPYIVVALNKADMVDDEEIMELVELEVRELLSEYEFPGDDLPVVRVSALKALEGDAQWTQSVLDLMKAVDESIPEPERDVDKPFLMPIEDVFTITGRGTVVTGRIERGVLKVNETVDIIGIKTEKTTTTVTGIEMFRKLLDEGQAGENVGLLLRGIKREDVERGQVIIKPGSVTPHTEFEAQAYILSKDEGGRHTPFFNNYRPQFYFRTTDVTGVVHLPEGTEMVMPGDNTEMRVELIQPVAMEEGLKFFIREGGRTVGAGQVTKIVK
T1 sequence (P29542 whole entry A379P): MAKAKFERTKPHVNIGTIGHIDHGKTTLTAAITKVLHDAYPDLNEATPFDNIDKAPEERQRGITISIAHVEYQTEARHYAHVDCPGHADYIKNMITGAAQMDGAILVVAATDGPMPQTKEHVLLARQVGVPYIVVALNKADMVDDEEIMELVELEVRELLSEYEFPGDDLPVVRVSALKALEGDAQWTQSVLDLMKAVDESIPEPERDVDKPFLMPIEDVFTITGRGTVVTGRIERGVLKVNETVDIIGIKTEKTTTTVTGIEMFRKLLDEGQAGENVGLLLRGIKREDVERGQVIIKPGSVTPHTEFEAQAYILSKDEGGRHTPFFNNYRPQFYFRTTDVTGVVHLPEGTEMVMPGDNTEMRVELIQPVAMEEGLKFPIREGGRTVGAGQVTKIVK
T5 sequence (P29542 whole entry A379V): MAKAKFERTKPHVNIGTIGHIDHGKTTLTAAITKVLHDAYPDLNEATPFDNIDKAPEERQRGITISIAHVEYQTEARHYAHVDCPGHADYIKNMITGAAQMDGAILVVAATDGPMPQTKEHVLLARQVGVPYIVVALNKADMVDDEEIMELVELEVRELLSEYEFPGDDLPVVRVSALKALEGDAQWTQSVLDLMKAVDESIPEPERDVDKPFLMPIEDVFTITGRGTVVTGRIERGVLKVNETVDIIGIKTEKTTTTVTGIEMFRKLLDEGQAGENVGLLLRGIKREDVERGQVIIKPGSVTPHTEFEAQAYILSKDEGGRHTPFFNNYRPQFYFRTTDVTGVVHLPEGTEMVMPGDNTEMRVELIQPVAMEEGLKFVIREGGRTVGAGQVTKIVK
T3 sequence (P29542 whole entry A379V): as above

C/C=C\C=C\[C@@H]1O[C@](O)([C@H](CC)C(=O)NC/C=C/C=C(\C)[C@@H](OC)[C@@H](C)[C@@H]2O[C@H](/C=C/C=C/C=C(\C)C(=O)c3c(O)ccn(C)c3=O)[C@H](O)[C@@H]2O)[C@H](O)[C@H](O)C1(C)C [aurodox, N-Methylmocimycin] was tested, and the “elfamycin binding (migration in non-denaturing PAGE)” value (SrEF-Tu A378P) was “unaffected”, the “elfamycin binding (migration in non-denaturing PAGE)” value (SrEF-Tu A378F) was “unaffected” and the “elfamycin binding (migration in non-denaturing PAGE)” value (SrEF-Tu A378V) was “unaffected”. The “elfamycin binding (migration in non-denaturing PAGE)” value (SrEF-Tu A378T) was “unaffected”, the “elfamycin binding (migration in non-denaturing PAGE)” value [1] was “unable to bind” and the “elfamycin binding (migration in non-denaturing PAGE)” value [2] was “appears to bind”.

— patent publication EP0466251A1, “Elfamycin-resistant mutants” (priority 1990, dated 1992)
